This is an account of results in ChEMBL document CHEMBL1201862, “PubChem BioAssay data set” (2004).

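In this assay, cells in 96-well plates receive the compound at five concentrations for 48 hours. Endpoints are linearly interpolated between the surrounding concentrations. The concentration for 50% growth inhibition is given as GI50.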 Active and inactive are the calls of the source. Rule as the data show it: active = GI50 up to about 1.1 µM and inactive = higher.

Holding throughout (test): NCI-60 cell line screen, 48 h
The subject of assay [1] is A549.
Assay [2] has as its system BT-549.
Assay [3] relates to COLO 205.
In assay [4] the test system is HCT-15.
Assay [5] has as its system Hs-578T.
The subject of assay [6] is IGROV-1.
For assay [7], the system named is M14.
Assay [8] has as its system MDA-MB-435.
Assay [9] relates to MDA-N.
The test system of assay [10] is Malme-3M.
The test system of assay [11] is NCI-H226.
The subject of assay [12] is NCI-H522.
For assay [13], the system named is NCI/ADR-RES.
In assay [14] the test system is SF-268.
The test system of assay [15] is SF-295.
Assay [16] deals with SNB-19.
In assay [17] the test system is SR.
The test system of assay [18] is SW-620.
Assay [19] concerns UACC-257.
The subject of assay [20] is UACC-62.

In the case of `CC(=O)NC1C(OCc2ccccc2)OC(CO)C(O)C1OCC(=O)N1CCCC1C(=O)NC(CCC(=O)NCCCCCNc1c2ccccc2nc2cccc([N+](=O)[O-])c12)C(N)=O` (stereo not given), the GI50 was 0.0134 µM (active) in assay [1]; 0.0524 µM (active) in assay [2]; 0.0144 µM (active) in [3]; 0.0164 µM in [4]; 0.0345 µM (active) in assay [5]; 0.232 µM (active) in assay [6]. The GI50 in assay [7] was 0.0228 µM (active); in assay [8] it was 0.0154 µM (active); in [9] it was 0.019 µM (active); in assay [10] it was 0.0188 µM (active); in assay [11] it was 0.114 µM (active); in assay [12], 0.0353 µM (active). The GI50 in [13] is 0.0726 µM (active); in [14], 0.0201 µM (active); in [15] it was 0.048 µM (active); in assay [16] it was 0.028 µM (active); in assay [17] it was 0.281 µM (active); in [18] it was 0.00399 µM (active). Also, the GI50 is 0.0481 µM (active) in assay [19] and 0.0225 µM (active) in assay [20].
Take `C=C1c2nc3ccccc3n2C=C(c2ccc(C)cc2)N1c1ccc(C)cc1`: the GI50 was 52.6 µM (inactive) in assay [1]; 51.6 µM (inactive) in assay [2]; 28.8 µM (inactive) in [3]; 23.8 µM in assay [4]; > 100 µM (inactive) in assay [5]; > 67.1 µM (inactive) in [6]. In addition, the GI50 in assay [7] was 56.1 µM (inactive); in assay [8] it was 11.6 µM (inactive); in assay [9], 20.6 µM (inactive); in assay [10] it was > 63.2 µM (inactive); in assay [11], 7.08 µM (inactive); in assay [12], 17.2 µM (inactive). Moreover, the GI50 is 17.9 µM (inactive) in assay [13]; > 100 µM (inactive) in assay [14]; 50.9 µM (inactive) in [15]; > 100 µM (inactive) in [16]; 11.5 µM (inactive) in assay [17]; 36.8 µM (inactive) in [18]. Moreover, the GI50 in [19] was 67.3 µM (inactive); in assay [20], > 83.8 µM (inactive).
For `C1CN(c2nnc(N3CCC3)nn2)C1`, the GI50 in assay [1] was > 100 µM (inactive); in [2], > 65.9 µM (inactive); in [3], 60.7 µM (inactive); in assay [4] it was more than 100 µM; in assay [5] it was 39 µM (inactive); in assay [6], > 100 µM (inactive). Further, the GI50 is 36.1 µM (inactive) in [7]; 18.4 µM (inactive) in [8]; 17.3 µM (inactive) in assay [9]; 44.4 µM (inactive) in [10]; > 96.6 µM (inactive) in assay [11]; 44.4 µM (inactive) in [12]. Besides, the GI50 was > 53 µM (inactive) in [13]; 90.6 µM (inactive) in [14]; 37.3 µM (inactive) in [15]; > 67.9 µM (inactive) in assay [16]; > 100 µM (inactive) in assay [17]; 32.3 µM (inactive) in [18]. Besides, the figures for the GI50 in assay [19] and in [20] were 22.9 µM (inactive) and 19.3 µM (inactive), respectively.
As for `Cc1ccnc(NS(=O)(=O)c2ccc(N=[N+]=[N-])cc2)n1`, the GI50 in assay [1] is > 100 µM (inactive); in assay [2] it was > 100 µM (inactive); in assay [3], > 100 µM (inactive); in assay [4], more than 100 µM; in assay [5], > 100 µM (inactive); in assay [6], > 100 µM (inactive). Also, the GI50 in assay [7] is > 100 µM (inactive); in [8] it was > 100 µM (inactive); in assay [9], > 100 µM (inactive); in assay [10], > 67.9 µM (inactive); in [11], > 100 µM (inactive); in assay [12] it was > 100 µM (inactive). For the same molecule, the GI50 in assay [13] is > 100 µM (inactive); in assay [14], > 100 µM (inactive); in assay [15] it was > 100 µM (inactive); in assay [16] it was > 100 µM (inactive); in assay [17] it was 1.34 µM (inactive); in assay [18], > 100 µM (inactive). The GI50 in assay [19] and in assay [20] was > 100 µM (inactive) each time.
As for `NNC(=O)CCSc1ccccc1`, the GI50 in assay [1] was > 100 µM (inactive); in assay [2], > 100 µM (inactive); in assay [3] it was > 100 µM (inactive); in [4], more than 100 µM; in assay [5], > 100 µM (inactive); in [6] it was > 100 µM (inactive). The GI50 in assay [7], in assay [8], in [9], in assay [10], in assay [11] and in assay [12] was > 100 µM (inactive) in each case. The GI50 in assay [13], in assay [14], in assay [15], in assay [16], in [17] and in [18] was > 100 µM (inactive) in each case. Besides, the GI50 in assay [19] and in assay [20] was > 100 µM (inactive) each time.
Regarding `CSc1nc2ccccc2c(=O)n1-c1cccc(C)c1`, the GI50 in assay [1] is 94.2 µM (inactive); in assay [2], > 100 µM (inactive); in assay [3], 48.9 µM (inactive); in assay [4], 36.2 µM; in [5] it was 47.4 µM (inactive); in [6] it was 39.2 µM (inactive). In addition, the GI50 in [7] is 95.5 µM (inactive); in assay [8] it was 29.1 µM (inactive); in assay [9] it was 23.6 µM (inactive); in assay [10] it was > 100 µM (inactive); in [11] it was > 100 µM (inactive); in assay [12], 67.8 µM (inactive). In addition, the GI50 in assay [13] is 48.4 µM (inactive); in assay [14], 99.1 µM (inactive); in assay [15] it was 95.5 µM (inactive); in assay [16], > 100 µM (inactive); in assay [17] it was 15.7 µM (inactive); in [18], 31.9 µM (inactive). Further, the GI50 in [19] was 31.1 µM (inactive); in assay [20], 71 µM (inactive).
For `O=C1C2SC34c5c2c2ccccc2n5CCC3CCCN14` (stereo not given), the GI50 was > 100 µM (inactive) in assay [1]; > 100 µM (inactive) in assay [2]; > 100 µM (inactive) in assay [3]; more than 100 µM in assay [4]; 38.1 µM (inactive) in assay [5]; 80.7 µM (inactive) in assay [6]. In addition, the GI50 in [7] was > 100 µM (inactive); in [8], 89.1 µM (inactive); in [9], > 100 µM (inactive); in [10], > 100 µM (inactive); in assay [11], > 100 µM (inactive); in assay [12] it was 56.8 µM (inactive). Also, the GI50 was > 100 µM (inactive) in [13]; 39.4 µM (inactive) in assay [14]; 55.2 µM (inactive) in assay [15]; 62.4 µM (inactive) in assay [16]; > 100 µM (inactive) in assay [17]; > 100 µM (inactive) in assay [18]. In addition, the values for the GI50 in [19] and in assay [20] were 15 µM (inactive) and > 100 µM (inactive), respectively.
For the molecule `NCC(=O)C(O)C(O)C(O)CO` (stereo not given), the GI50 in assay [1] was > 100 µM (inactive); in assay [2], > 100 µM (inactive); in assay [3] it was > 100 µM (inactive); in assay [4] it was more than 100 µM; in [5], > 100 µM (inactive); in assay [6], > 100 µM (inactive). The GI50 in assay [7], in assay [8], in assay [9], in [10], in assay [11] and in assay [12] was > 100 µM (inactive) throughout. Besides, the GI50 in assay [13], in assay [14], in assay [15], in assay [16], in assay [17] and in assay [18] was > 100 µM (inactive) throughout. Also, the GI50 in [19] and in [20] was > 100 µM (inactive) each time.
Regarding `N=C1/C(=C/c2ccco2)C(=O)N=C2SC=NN12`, the GI50 in assay [1] is > 100 µM (inactive); in assay [2] it was > 100 µM (inactive); in assay [3], > 100 µM (inactive); in assay [4] it was more than 100 µM; in assay [5] it was > 100 µM (inactive); in assay [6], > 100 µM (inactive). For the same molecule, the GI50 in assay [7], in [8], in assay [9], in assay [10], in assay [11] and in assay [12] was > 100 µM (inactive) throughout. Also, the GI50 in [13], in [14], in [15], in [16], in [17] and in assay [18] was > 100 µM (inactive) throughout. In addition, the GI50 in assay [19] and in [20] was > 100 µM (inactive) in each case.
In the case of `COc1ccc2nc(-c3ccccc3)c(=O)[nH]c2c1`, the GI50 is > 100 µM (inactive) in [1]; > 100 µM (inactive) in assay [2]; > 100 µM (inactive) in assay [3]; more than 100 µM in [4]; > 100 µM (inactive) in [5]; > 100 µM (inactive) in [6]. Also, the GI50 in assay [7], in [8], in [9], in assay [10], in assay [11] and in assay [12] was > 100 µM (inactive) each time. The GI50 in assay [13], in assay [14], in assay [15], in assay [16], in [17] and in [18] was > 100 µM (inactive) in each case. Also, the GI50 in [19] and in [20] was > 100 µM (inactive) throughout.
